According to BigSolDB 2.1:

O=C1CCCC(=O)O1
solubility (mole fraction)
Details	in 1,2-dichloroethane	in DMAc	in DMF	in acetone	in acetonitrile	in dichloromethane	in ethyl acetate	in methyl acetate	in n-butyl acetate	in n-propyl acetate
278.15 K	0.448	0.73	0.549	0.444	0.591	0.425	0.107	0.294	0.12	0.234
283.15 K	0.555	0.789	0.594	0.524	0.648	0.51	0.156	0.384	0.145	0.301
288.15 K	0.631	0.83	0.663	0.623	0.705	0.597	0.206	0.444	0.181	0.407
293.15 K	0.7	0.852	0.705	0.676	0.764	0.641	0.273	0.551	0.246	0.505
298.15 K	0.773	0.877	0.74	0.76	0.809	0.709	0.383	0.646	0.322	0.592
303.15 K	0.807	0.905	0.795	0.815	0.844	0.78	0.506	0.7	0.451	0.712
308.15 K	0.866	0.923	0.822	0.884	0.879	0.824	0.618	0.808	0.582	0.817
313.15 K	0.922	0.935	0.87	0.918	0.918	0.896	0.75	0.874	0.736	0.908
